Reference: PMC11120408 (Foods, 2024)
Where two headings read alike, the source gives them in different places.

Tests used:
α-glucosidase (α-Glu) [1] = biological target: T1, α-glucosidase (α-Glu) (Saccharomyces cerevisiae, UniProt P53341); test: biochemical; settings: Cα-Glu = 0.10 U/mL, CpNPG = 2.08 mM, pH 6.8, 310 K; read-out: IC50 against α-Glu
T1 construct: purchased Shanghai Yuanye Bio-Technology Co., Ltd
Description: The stock solutions (2.0 mM) of AK/MS were prepared by dissolving them in dimethyl sulfoxide, respectively. […] The inhibitory activities of AK/MS against α-Glu were assessed in vitro according to the previous method with a slight modification. Firstly, 50 μL of α-Glu and different doses of inhibitors were mixed for 1 h at 310 K. Fifty microliter of pNPG (5.0 mM) was then put in to activate the reaction. After a 30 min incubation, the Na2CO3 solution (0.2 M, 100 μL) was added to stop the reaction. The absorbance of p-nitrophenol converted from pNPG was monitored at 405 nm on an Infinite® M200 PRO plate reader (Tecan, Durham, NC, USA).

α-glucosidase (α-Glu) [2] = biological target: T1, α-glucosidase (α-Glu); test: biochemical; format: biochemical; settings: for inhibition mode against α-Glu: L-B plots; for Ki: read-out: Ki (inhibition constant, binding to enzyme); for reversibility of inhibition: plots of v vs α-Glu concentration
Description: The same procedure in Section 2.2.1 was used to investigate the inhibition mechanisms of AK and MS against α-Glu. Using the Michaelis–Menten equation, inhibitors with various concentrations were utilized to evaluate the kinetic parameters (Km and Vmax). Moreover, the values of two kinetic constants Ki and Kis were determined using the Lineweaver–Burk (L-B) plots. The L-B equation could be expressed in a double reciprocal form for the mixed-type inhibition mechanism analysis:(1) 1/v=Km/Vmax1+I/Ki1/S+1/Vmax1+I/Kis
Km and Vmax denote the Michaelis–Menten constant and the maximum reaction velocity, respectively. [I] and [S] are the concentrations of the inhibitor and substrate, respectively. Ki and Kis represent the inhibition constants to bind with the enzyme and the enzyme–substrate complex, respectively. The secondary plots of the Y-intercept versus [I] are linearly fitted.

α-glucosidase (α-Glu) [3] = biological target: T1, α-glucosidase (α-Glu); test: Fluorescence quenching / binding of AK/MS to α-Glu; settings: for Kq (quenching rate constant): Ksv/τ0; for Kd: read-out: Ka (binding constant) (converted); for fluorescence quenching mechanism: Stern–Volmer analysis; for ΔH^0 / ΔS^0: van't Hoff, 298–310 K; for decrease of synchronous fluorescence intensity of α-Glu: Δλ = 60 nm (Trp); for reduction of three-dimensional fluorescence intensity of Peak 1 of α-Glu: α-Glu 2.0 μM, inhibitor 13.0 μM
Description: The fluorescence spectrum of α-Glu was acquired in the spectral region of 300–450 nm on an F97 Pro spectrofluorometer (Lengguang Tech., Shanghai, China) with both excitation and emission slits of 10 nm, when excited at 280 nm. The solution of α-Glu (2.0 μM) was titrated by successively adding different amounts of AK (final concentrations of 4.0, 8.0, 12.0, 16.0, 20.0, 24.0 and 28.0 μM, respectively) or MS (final concentrations of 1.0, 3.0, 5.0, 7.0, 9.0, 11.0 and 13.0 μM, respectively) at 298, 304, and 310 K.
The synchronous fluorescence spectrum was recorded from 270 to 330 nm, when the interval of the emission and excitation wavelength (Δλ = λem − λex) constant was fixed at 15 and 60 nm, respectively.
The three-dimensional fluorescence spectra of α-Glu with or without AK/MS were measured at 298 K. The excitation wavelength range was from 200 to 360 nm, and the emission was collected from 270 to 330 nm, together with an increment of 10 nm. The final concentrations of α-Glu, AK, and MS were 2.0, 13.0, and 13.0 μM, respectively.
All the samples were thoroughly mixed and kept for 6 min before detection, and the inner-filter effect was eliminated to correct the obtained fluorescence data, referring to our previous report.
Thus, the relative mechanism was investigated through the Stern–Volmer equation:(6) F0/F=1+Ksv[Q]=1+kqτ0[Q] where F0 and F are the fluorescence intensities of α-Glu without and with inhibitors, respectively. Ksv, [Q], kq, and τ0 represent the Stern–Volmer quenching constant, the concentration of inhibitor, the biomolecule quenching rate constant, and the average lifetime of protein in the absence of inhibitors, respectively. Specifically, Ksv is determined by the plot of F0/F against [Q], τ0 is about 10^−8 s, and kq is equal to Ksv/τ0.
The binding constants (Ka) of the α-Glu-AK and α-Glu-MS systems were evaluated by the following equation:(7) logF0−F/F=nlogKa−nlog1/[Qt]−(F0−F)[Pt]/F0 where [Pt] and [Qt] represent the total concentrations of α-Glu and the inhibitor, respectively. n is the number of binding sites.
To better reveal the binding mechanism of AK/MS to α-Glu, the critical forces between them were also explored. Typically, the binding forces between proteins and ligands could be estimated by the calculation of the thermodynamic parameters using the following equations:(8) logKa=−ΔH^0/2.303RT+ΔS^0/2.303R (9) ΔG^0=ΔH^0−TΔS^0 where T represents the absolute temperature (in Kelvin), and R is the universal gas constant (8.314 J mol^−1 K^−1). ΔH^0 and ΔS^0 stand for the enthalpy change and entropy change, respectively, and they could be calculated by the slope and the y-axis intercept in the linearly fitted plot between lnKa and 1/T (Figure S4A,B). Then, the free energy change (ΔG^0) is obtained according to Equation (9).

[4] = Solubility and light sensitivity (statement, no method)
α-Glu = settings: read-out: IC50 against α-Glu, cited from earlier work
[5] = mixed-type, L-B secondary plots

T1 sequence (P53341 whole entry): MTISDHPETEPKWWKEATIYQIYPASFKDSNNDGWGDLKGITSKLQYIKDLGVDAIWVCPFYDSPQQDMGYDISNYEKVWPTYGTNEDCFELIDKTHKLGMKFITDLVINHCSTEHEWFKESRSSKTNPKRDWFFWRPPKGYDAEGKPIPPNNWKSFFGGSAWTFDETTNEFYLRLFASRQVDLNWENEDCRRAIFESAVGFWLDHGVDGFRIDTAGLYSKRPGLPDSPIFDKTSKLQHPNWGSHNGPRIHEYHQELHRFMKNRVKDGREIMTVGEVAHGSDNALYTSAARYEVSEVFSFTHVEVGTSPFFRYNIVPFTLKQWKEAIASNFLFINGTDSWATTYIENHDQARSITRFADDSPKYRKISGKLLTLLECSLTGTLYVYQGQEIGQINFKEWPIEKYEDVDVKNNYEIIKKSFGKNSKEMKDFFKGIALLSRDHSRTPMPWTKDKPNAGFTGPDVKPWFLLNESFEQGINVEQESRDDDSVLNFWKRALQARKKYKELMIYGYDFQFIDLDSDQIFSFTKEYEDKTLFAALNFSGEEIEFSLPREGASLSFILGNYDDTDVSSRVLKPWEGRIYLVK

| Structure (SMILES) | IC50 (α-glucosidase (α-Glu) [1]) [µM] | inhibition mode against α-Glu (α-glucosidase (α-Glu) [2]) | Ki (α-glucosidase (α-Glu) [2]; [5]) [µM] | reversibility of inhibition (α-glucosidase (α-Glu) [2]) | Ksv (Stern–Volmer quenching constant) (α-glucosidase (α-Glu) [3]; 298 K) | Kq (quenching rate constant) (α-glucosidase (α-Glu) [3]; 298 K) | Kd (α-glucosidase (α-Glu) [3]; 298 K) [µM] | Ksv (Stern–Volmer quenching constant) (α-glucosidase (α-Glu) [3]; 304 K) | ΔG^0 (α-glucosidase (α-Glu) [3]; 304 K) [kcal/mol] | Kq (quenching rate constant) (α-glucosidase (α-Glu) [3]; 304 K) | Kd (α-glucosidase (α-Glu) [3]; 304 K) [µM] | Ksv (Stern–Volmer quenching constant) (α-glucosidase (α-Glu) [3]; 310 K) | ΔG^0 (α-glucosidase (α-Glu) [3]; 310 K) [kcal/mol] | Kq (quenching rate constant) (α-glucosidase (α-Glu) [3]; 310 K) | Kd (α-glucosidase (α-Glu) [3]; 310 K) [µM] | fluorescence quenching mechanism (α-glucosidase (α-Glu) [3]) | ΔH^0 (α-glucosidase (α-Glu) [3]) [kcal/mol] | ΔS^0 (α-glucosidase (α-Glu) [3]) [J mol^−1K^−1] | decrease of synchronous fluorescence intensity of α-Glu (α-glucosidase (α-Glu) [3]) [%] | reduction of three-dimensional fluorescence intensity of Peak 1 of α-Glu (α-glucosidase (α-Glu) [3]; 298 K) [%] | other results |
| --- | --- | --- | --- | --- | --- | --- | --- | --- | --- | --- | --- | --- | --- | --- | --- | --- | --- | --- | --- | --- | --- |
| C/C=C/C1=CC2=C(CO1)C(=O)[C@]1(C)OC(=O)[C@H](C(=O)CCCCCCC)[C@H]1C2 [AK, ankaflavin] | 127 ± 2.5 | mixed type | 57.8 ± 5.89 | reversible inhibitors | 2.23 ± 0.12 10^4 M^−1 | 2.23 ± 0.12 10^12 M^−1s^−1 | 58.1 | 2.08 ± 0.07 10^4 M^−1 | -2.488 ± 0.0813 | 2.08 ± 0.07 10^12 M^−1s^−1 | 63.3 | 1.91 ± 0.08 10^4 M^−1 | -2.519 ± 0.0526 | 1.91 ± 0.08 10^12 M^−1s^−1 | 69.4 | static quenching | -0.841 ± 0.0048 | 22.66 ± 0.84 | 59.4 | 24.9 | Vmax of α-Glu (α-glucosidase (α-Glu) [2]; inhibitor 30 μM): 4.02 ± 0.07 µM/min; Vmax of α-Glu (α-glucosidase (α-Glu) [2]; inhibitor 40 μM): 3.86 ± 0.04 µM/min; Kis (inhibition constant, binding to enzyme–substrate complex) (α-glucosidase (α-Glu) [2]; [5]): 3.45 ± 0.06 µM |
| C/C=C/C1=CC2=C(CO1)C(=O)[C@]1(C)OC(=O)[C@H](C(=O)CCCCC)[C@H]1C2 [MS, monascin] | 302.6 ± 2.5 | mixed type | 298 ± 18.1 | reversible inhibitors | 2.09 ± 0.02 10^4 M^−1 | 2.09 ± 0.02 10^12 M^−1s^−1 | 70.9 | 1.94 ± 0.04 10^4 M^−1 | -2.536 ± 0.0048 | 1.94 ± 0.04 10^12 M^−1s^−1 | 76.3 | 1.58 ± 0.03 10^4 M^−1 | -2.562 ± 0.0072 | 1.58 ± 0.03 10^12 M^−1s^−1 | 80.6 | static quenching | -1.18 ± 0.0239 | 18.68 ± 3.20 | 33.9 | 20.0 | Vmax of α-Glu (α-glucosidase (α-Glu) [2]; inhibitor 100 μM): 1.85 ± 0.04 µM/min; Vmax of α-Glu (α-glucosidase (α-Glu) [2]; inhibitor 200 μM): 1.76 ± 0.08 µM/min; sensitivity to light [4]: sensitive to light; solubility [4]: poor |
| C[C@H]1O[C@H](O[C@H]2[C@H](O)[C@@H](O)[C@@H](O[C@H]3[C@H](O)[C@@H](O)C(O)O[C@@H]3CO)O[C@@H]2CO)[C@H](O)[C@@H](O)[C@@H]1N[C@H]1C=C(CO)[C@@H](O)[C@H](O)[C@H]1O (stereo partly shown) [acarbose] | – | – | – | – | – | – | – | – | – | – | – | – | – | – | – | – | – | – | – | – | IC50 (α-Glu; previous work): 376 ± 4.4 µM |
| O=c1cc(-c2ccc(O)cc2)oc2cc(O)cc(O)c12 [apigenin] | – | – | – | – | – | – | – | – | – | – | – | – | – | – | – | – | – | – | – | – | IC50 (α-Glu): 10.5 ± 0.05 µM |
